Residues, ends and D or L forms follow the SMILES beside them.
Tested on: E. coli O157:H7
Assay type: cell-based, Escherichia coli
Settings: screening-stage peptides tested at 1, 6, 12 and 25 μg/mL
Description: In the present invention we used the statistical thermodynamics algorithm TANGO to identify aggregation prone regions (APR) in the proteome of E. coli strain O157:H7. This yielded 3535 sequences of at least 6 amino acids in length and a TANGO score of at least 20%. In order to generate efficient aggregation seeds, we employed a previously devised tandem repeat design ^19, 21, in which the APRs are repeated once and separated by a linker. Given the length limitation on solid phase peptide synthesis with regard to yield and purity, we focused on the 1542 APRs with a length of 7 amino acids. In order to maximize the potential of these peptides to induce aggregation in E. coli, we ranked the APRs by their frequency of occurrence throughout the E. coli proteome, allowing a single amino acid mismatch, and selected the first 75 most frequently occurring sequences from this list (Table 4). In the design pattern, and in order to increase the colloidal stability of these aggregating peptides, the APRs are flanked by aggregation gatekeepers, a class of residues that was previously shown to reduce aggregation kinetics^22-24. […] To generate the tandem we used a single proline residue as a linker between the gatekeeper-flanked APRs. In addition to the 75 peptides generated in this fashion, we added 2 variants of each of the first 25 peptides in the list by randomly mutating one residue in the first APR repeat to arginine to further modulate the aggregation propensity of the peptides (Table 4). All the peptides were generated using solid phase synthesis at 200 nmole scale and dissolved in DMSO to a theoretical stock concentration of 2 mM (assuming 100% synthesis efficiency). Peptide activity on the growth of E. coli O157:H7 was measured at dilutions of the peptide corresponding to concentrations of 1, 6, 12 and 25 μg/mL. […] The Matthews Correlations Coefficient (MCC) with the measured activity was 0.1 at 12 μg/mL and 0.24 at 25 μg/mL.

First: CC(C)C[C@H](NC(=O)[C@H](C)NC(=O)[C@H](CC(C)C)NC(=O)[C@@H](NC(=O)[C@H](C)NC(=O)[C@H](CO)NC(=O)[C@H](CCCNC(=N)N)NC(=O)[C@@H]1CCCN1C(=O)[C@H](CCCNC(=N)N)NC(=O)[C@H](CCCNC(=N)N)NC(=O)[C@H](CC(C)C)NC(=O)[C@H](CC(C)C)NC(=O)[C@H](C)NC(=O)[C@H](CC(C)C)NC(=O)[C@@H](NC(=O)[C@H](C)NC(=O)[C@H](CO)NC(=O)[C@@H](N)CCCNC(=N)N)C(C)C)C(C)C)C(=O)N[C@@H](CC(C)C)C(=O)N[C@@H](CCCNC(=N)N)C(=O)N[C@@H](CCCNC(=N)N)C(=O)O [Peptide P18] (H-RSAVLALLRRPRSAVLALLRR-OH; N-terminus and C-terminus assumed)
Second: CC(C)C[C@H](NC(=O)[C@H](C)NC(=O)[C@H](CC(C)C)NC(=O)[C@@H](NC(=O)[C@H](C)NC(=O)[C@H](CO)NC(=O)[C@H](CCCNC(=N)N)NC(=O)[C@@H]1CCCN1C(=O)[C@H](CCCNC(=N)N)NC(=O)[C@H](CCCNC(=N)N)NC(=O)[C@H](CC(C)C)NC(=O)[C@H](CC(C)C)NC(=O)[C@H](C)NC(=O)[C@H](CCCNC(=N)N)NC(=O)[C@@H](NC(=O)[C@H](C)NC(=O)[C@H](CO)NC(=O)[C@@H](N)CCCNC(=N)N)C(C)C)C(C)C)C(=O)N[C@@H](CC(C)C)C(=O)N[C@@H](CCCNC(=N)N)C(=O)N[C@@H](CCCNC(=N)N)C(=O)O [Peptide P118] (H-RSAVRALLRRPRSAVLALLRR-OH; N-terminus and C-terminus assumed)
The “E. coli O157 (apparent MIC in screen)” value of the first is 2.1-fold lower: 12 µg/mL for the first, 25 µg/mL for the second.

CC(C)C[C@H](NC(=O)[C@H](C)NC(=O)[C@H](CCCNC(=N)N)NC(=O)[C@@H]1CCCN1C(=O)[C@H](CCCNC(=N)N)NC(=O)[C@H](CCCNC(=N)N)NC(=O)[C@H](CC(C)C)NC(=O)[C@H](CC(C)C)NC(=O)[C@@H](NC(=O)[C@@H](NC(=O)[C@H](CCCNC(=N)N)NC(=O)[C@H](CC(C)C)NC(=O)[C@H](C)NC(=O)[C@@H](N)CCCNC(=N)N)[C@@H](C)O)[C@@H](C)O)C(=O)N[C@@H](CC(C)C)C(=O)N[C@H](C(=O)N[C@H](C(=O)N[C@@H](CC(C)C)C(=O)N[C@@H](CC(C)C)C(=O)N[C@@H](CCCNC(=N)N)C(=O)N[C@@H](CCCNC(=N)N)C(=O)O)[C@@H](C)O)[C@@H](C)O [Peptide P80] (H-RALRTTLLRRPRALLTTLLRR-OH; N-terminus and C-terminus assumed) and CC(C)C[C@H](NC(=O)[C@H](C)NC(=O)[C@H](CC(C)C)NC(=O)[C@@H](NC(=O)[C@H](CCCNC(=N)N)NC(=O)[C@@H]1CCCN1C(=O)[C@H](CCCNC(=N)N)NC(=O)[C@H](CCCNC(=N)N)NC(=O)[C@H](CC(C)C)NC(=O)[C@H](C)NC(=O)[C@H](CCCNC(=N)N)NC(=O)[C@H](CC(C)C)NC(=O)[C@H](C)NC(=O)[C@H](CC(C)C)NC(=O)[C@@H](NC(=O)[C@@H](N)CCCNC(=N)N)C(C)C)C(C)C)C(=O)N[C@@H](C)C(=O)N[C@@H](C)C(=O)N[C@@H](CC(C)C)C(=O)N[C@@H](CCCNC(=N)N)C(=O)N[C@@H](CCCNC(=N)N)C(=O)O [Peptide P111] (H-RVLALRALRRPRVLALAALRR-OH; N-terminus and C-terminus assumed) are the same in “E. coli O157 (apparent MIC in screen)” value: 25 µg/mL for the first, 25 µg/mL for the second.

CC(C)C[C@H](NC(=O)[C@H](C)NC(=O)[C@H](CC(C)C)NC(=O)[C@@H](NC(=O)[C@@H](NC(=O)[C@H](C)NC(=O)[C@H](CCCNC(=N)N)NC(=O)[C@@H]1CCCN1C(=O)[C@H](CCCNC(=N)N)NC(=O)[C@H](CCCNC(=N)N)NC(=O)[C@H](CC(C)C)NC(=O)[C@H](CC(C)C)NC(=O)[C@H](C)NC(=O)[C@H](CC(C)C)NC(=O)[C@@H](NC(=O)[C@@H](NC(=O)[C@H](C)NC(=O)[C@@H](N)CCCNC(=N)N)[C@@H](C)O)C(C)C)[C@@H](C)O)C(C)C)C(=O)N[C@@H](CC(C)C)C(=O)N[C@@H](CCCNC(=N)N)C(=O)N[C@@H](CCCNC(=N)N)C(=O)O [Peptide P29] (H-RATVLALLRRPRATVLALLRR-OH; N-terminus and C-terminus assumed) and CC(C)C[C@H](NC(=O)[C@H](C)NC(=O)[C@H](CCCNC(=N)N)NC(=O)[C@@H]1CCCN1C(=O)[C@H](CCCNC(=N)N)NC(=O)[C@H](CCCNC(=N)N)NC(=O)[C@H](CC(C)C)NC(=O)[C@H](CC(C)C)NC(=O)[C@H](C)NC(=O)[C@@H](NC(=O)[C@H](C)NC(=O)[C@H](CC(C)C)NC(=O)[C@H](C)NC(=O)[C@@H](N)CCCNC(=N)N)C(C)C)C(=O)N[C@@H](C)C(=O)N[C@H](C(=O)N[C@@H](C)C(=O)N[C@@H](CC(C)C)C(=O)N[C@@H](CC(C)C)C(=O)N[C@@H](CCCNC(=N)N)C(=O)N[C@@H](CCCNC(=N)N)C(=O)O)C(C)C [Peptide P12] (H-RALAVALLRRPRALAVALLRR-OH; N-terminus and C-terminus assumed) are the same in “E. coli O157 (apparent MIC in screen)” value: 25 µg/mL for the first, 25 µg/mL for the second.

CC(C)C[C@H](NC(=O)[C@H](C)NC(=O)[C@H](CC(C)C)NC(=O)[C@@H](NC(=O)[C@H](C)NC(=O)[C@H](CO)NC(=O)[C@H](CCCNC(=N)N)NC(=O)[C@@H]1CCCN1C(=O)[C@H](CCCNC(=N)N)NC(=O)[C@H](CCCNC(=N)N)NC(=O)[C@H](CC(C)C)NC(=O)[C@H](CC(C)C)NC(=O)[C@H](C)NC(=O)[C@H](CC(C)C)NC(=O)[C@H](CCCNC(=N)N)NC(=O)[C@H](C)NC(=O)[C@H](CO)NC(=O)[C@@H](N)CCCNC(=N)N)C(C)C)C(=O)N[C@@H](CC(C)C)C(=O)N[C@@H](CCCNC(=N)N)C(=O)N[C@@H](CCCNC(=N)N)C(=O)O [Peptide P93] (H-RSARLALLRRPRSAVLALLRR-OH; N-terminus and C-terminus assumed) and CC(C)C[C@H](NC(=O)[C@H](C)NC(=O)[C@H](CC(C)C)NC(=O)[C@H](CC(C)C)NC(=O)[C@H](CC(C)C)NC(=O)[C@H](CCCNC(=N)N)NC(=O)[C@@H]1CCCN1C(=O)[C@H](CCCNC(=N)N)NC(=O)[C@H](CCCNC(=N)N)NC(=O)[C@H](CO)NC(=O)[C@H](CCCNC(=N)N)NC(=O)[C@H](CC(C)C)NC(=O)[C@H](C)NC(=O)[C@H](CC(C)C)NC(=O)[C@H](CC(C)C)NC(=O)[C@H](CC(C)C)NC(=O)[C@@H](N)CCCNC(=N)N)C(=O)N[C@@H](CC(C)C)C(=O)N[C@@H](CO)C(=O)N[C@@H](CCCNC(=N)N)C(=O)N[C@@H](CCCNC(=N)N)C(=O)O [Peptide P103] (H-RLLLALRSRRPRLLLALLSRR-OH; N-terminus and C-terminus assumed) are the same in “E. coli O157 (apparent MIC in screen)” value: 25 µg/mL for the first, 25 µg/mL for the second.

Compared with CC(C)C[C@H](NC(=O)[C@H](C)NC(=O)[C@@H](NC(=O)[C@H](CC(C)C)NC(=O)[C@H](CCC(N)=O)NC(=O)[C@H](CCCNC(=N)N)NC(=O)[C@@H]1CCCN1C(=O)[C@H](CCCNC(=N)N)NC(=O)[C@H](CCCNC(=N)N)NC(=O)[C@@H](NC(=O)[C@H](CC(C)C)NC(=O)[C@H](CCCNC(=N)N)NC(=O)[C@H](C)NC(=O)[C@@H](NC(=O)[C@H](CC(C)C)NC(=O)[C@H](CCC(N)=O)NC(=O)[C@@H](N)CCCNC(=N)N)C(C)C)C(C)C)C(C)C)C(=O)N[C@@H](CC(C)C)C(=O)N[C@H](C(=O)N[C@@H](CCCNC(=N)N)C(=O)N[C@@H](CCCNC(=N)N)C(=O)O)C(C)C [Peptide P92] (H-RQLVARLVRRPRQLVALLVRR-OH; N-terminus and C-terminus assumed), CC(C)C[C@H](NC(=O)[C@H](C)NC(=O)[C@H](CC(C)C)NC(=O)[C@@H](NC(=O)[C@H](CCC(N)=O)NC(=O)[C@H](C)NC(=O)[C@H](CCCNC(=N)N)NC(=O)[C@@H]1CCCN1C(=O)[C@H](CCCNC(=N)N)NC(=O)[C@H](CCCNC(=N)N)NC(=O)[C@H](CC(C)C)NC(=O)[C@H](CC(C)C)NC(=O)[C@H](C)NC(=O)[C@H](CC(C)C)NC(=O)[C@@H](NC(=O)[C@H](CCC(N)=O)NC(=O)[C@H](C)NC(=O)[C@@H](N)CCCNC(=N)N)C(C)C)C(C)C)C(=O)N[C@@H](CC(C)C)C(=O)N[C@@H](CCCNC(=N)N)C(=O)N[C@@H](CCCNC(=N)N)C(=O)O [Peptide P40] (H-RAQVLALLRRPRAQVLALLRR-OH; N-terminus and C-terminus assumed) is 4.2-fold higher in “E. coli O157 (apparent MIC in screen)” value: 6 µg/mL for the first, 25 µg/mL for the second.

With CC(C)C[C@H](NC(=O)[C@H](C)NC(=O)[C@H](CCCNC(=N)N)NC(=O)[C@@H]1CCCN1C(=O)[C@H](CCCNC(=N)N)NC(=O)[C@H](CCCNC(=N)N)NC(=O)[C@H](CC(C)C)NC(=O)[C@H](CC(C)C)NC(=O)[C@H](CC(C)C)NC(=O)[C@H](CO)NC(=O)[C@@H](NC(=O)[C@H](CC(C)C)NC(=O)[C@H](C)NC(=O)[C@@H](N)CCCNC(=N)N)C(C)C)C(=O)N[C@H](C(=O)N[C@@H](CO)C(=O)N[C@@H](CC(C)C)C(=O)N[C@@H](CC(C)C)C(=O)N[C@@H](CC(C)C)C(=O)N[C@@H](CCCNC(=N)N)C(=O)N[C@@H](CCCNC(=N)N)C(=O)O)C(C)C [Peptide P58] (H-RALVSLLLRRPRALVSLLLRR-OH; N-terminus and C-terminus assumed) the “E. coli O157 (apparent MIC in screen)” value was 12 µg/mL.

Reference: US11872262B2, “Means and methods for treating bacterial infections” (VIB VZW, priority 2017, dated 2024)
